Earlier results, collected in US9186326B2 (Kimia Zist Parsian (KZP), priority 2014, dated 2015).

System: glucocorticoid effect

Dexamethasone
mineral corticoid effect: minimal mineral corticoid effect
potency relative to cortisol in glucocorticoid effect (versus cortisol): twenty five
